Four compounds from patent publication US7528205B2, “Photo radical generator, photo sensitive resin composition and article” (Dai Nippon Printing Co., Ltd., priority 2003, dated 2009) can be followed below.

One data set is described as follows: Solubility test. The format is physicochemical. The conditions noted are these: for solubility at 3 h: organic solvent or mixture, thermodynamic from solid. On the procedure: As for the compound 1 and the comparative compound 3, a solubility test was performed respectively. Each sample was added to each solvent or monomer so as to be 0.5 mol/L at 20° C. After radiating ultrasonic wave for 3 hours, one with a precipitate was concluded as “0” and one without a precipitate was concluded as “x”.

Data set [1] is described as follows: Evaluation 2 of curability (triethanolamine added as hydrogen donor). The procedure:
(§1) Using a trifunctional acrylate (product name; M-305, manufactured by Toagosei Co., Ltd.) as polyfunctional monomers, the compounds 1 to 14, the comparative compounds 2 and 3 and a photoradical generator Irgacure 907 (product name; manufactured by Ciba Specialty Chemicals) were mixed with each polyfunctional monomer to prepare each THF solution of each photoradical generator.
(§2) The mixing was performed so that a ratio of the photoradical generator to the polyfunctional monomer is such that number of imide part of each of the compounds 1 to 14 and the comparative compounds 2 and 3 with respect to number of double bond of the polyfunctional monomer is 1/50 (number of imide part/number of polyfunctional monomer) or, in the case of Irgacure, number of the molecule with respect to number of double bond of the polyfunctional monomer is 1/50 (number of Irgacure 907/number of polyfunctional monomer).
(§3) Each solution was applied by spin coating to a glass substrate on which chromium was sputtered to obtain coating layers. Also, a layer without initiator component or comparative compounds and only containing trifunctional acrylate was formed as a blank.
(§4) A decrement of the peak at 810 cm^−1 was recorded with time by using an infrared spectrometer (product name: FTS6000; manufactured by BIO RAD) while exposing the above coating layer to ultraviolet rays, to confirm the degree of the disappearance of a double bond. The atmosphere around the sample during measurement was replaced with nitrogen. As the UV exposure apparatus, UV Spot Cure SP-III type (standard reflecting mirror type) manufactured by Ushio Inc. was used and as the UV lamp, USH-255BY (manufactured by Ushio Inc.) was used.
In order to confirm whether or not the seven-membered ring imide structure-containing group was a hydrogen-drawing type radical generator, triethanolamine was added to THF solutions containing each of the compositions 1 to 14 used in the aforementioned Evaluation 1 of curability and trifunctional acrylate M305, coating layers were formed in the same manner as in the aforementioned Evaluation 1 of curability, and evaluated similarly. As comparative examples, each of the comparative compounds 1 and 3 was used.

Data set [2] can be described thus: Evaluation of transparency (transmittance of cured coating layer). The format is physicochemical. On the procedure:
Using a trifunctional acrylate (product name; M305, manufactured by Toagosei Co., Ltd.) as polyfunctional monomers, each of the compound 1, a combination of the compound 1 and triethanolamine of the same number of mol and a photoradical generator Irgacure 907 (Irg907) were mixed to prepare each THF solution in the same ratio as the Evaluation of curability. Each solution was applied by spin coating to a glass substrate and heated on a 50° C. hot plate for one minute. Then, the substrate was exposed to light from a high pressure mercury lamp at an intensity of 2,000 mJ/cm^2 based on h-rays by using a hand-operated exposure apparatus (MA-1200, manufactured by Dainippon Screen Mfg. Co., Ltd.), to obtain a coating layer having a thickness of 4.2±0.05 μm. The transmittance of each coating layer was measured by a spectrometer (UV-2550 (PC)S GLP; manufactured by Shimadzu Corporation).

Data set [3] is described as follows: Evaluation of heat resistance (thermogravimetry, 5% reduction in weight temperature). The format is physicochemical. Conditions: for 5% heat decomposition temperature: temperature rise rate 10° C./min. On the procedure: Herein, the 5% reduction in weight temperature means a temperature at which the weight of a sample is reduced […] when a decrement of weight is measured using a thermogravimetric analyzer according to the same method as in the examples of the present invention as will be explained later. Similarly, the 10% reduction in weight temperature means a temperature at which the weight of a sample is reduced […].
Using a differential type differential thermal balance (product name: TG8120; manufactured by Rigaku Corporation), the 5% reduction in weight temperature of each of the compounds 1 to 15 was measured at a temperature rise rate of 10° C./min in a nitrogen atmosphere. As comparative examples, the comparative compounds 2 and 3 and a self-cleavage type photoradical generator Irgacure 907 (trademark; manufactured by Ciba Specialty Chemicals) were similarly measured.

Data set [4] is described as follows: Evaluation of ultraviolet absorption. The format is physicochemical. The conditions noted are these: for ultraviolet absorption bottom edge / ultraviolet absorption maximum wavelength: acetonitrile solution, 1.0×10^−5 mol/L. The procedure:
Using an acetonitrile solution containing 1.0×10^−5 mol/L of each of the compounds 1 and 15, each ultraviolet absorption spectrum was measured.

Data set [5] is described as follows: Evaluation 1 of curability (coating layer with trifunctional acrylate, UV exposure, no hydrogen donor). Conditions: for Reaction rate (decrement of double bond): nitrogen; for Compatibility with M305: imide part/double bond 1/50. The procedure: as §1, §2, §3, §4
Setting [6] is: 0.5 mol/L at 20° C., ultrasonic wave 3 hours.

Read-outs that look alike come from different tables or passages of the source. Bounds are passed on as bounds.

As for `COCCn1c(=O)c2ccccc2c2ccccc2c1=O` [Compound 1], the “solubility, comparison in words” value in the data set “Solubility test” is recorded as “superior in solubility to the comparative compound 3”. For the same compound, in “Solubility test” (setting [6]), the “Solubility in Acetone” value is reported as “∘”, the “Solubility in Chloroform” value was “∘”, the “Solubility in Dimethylformamide” value was “∘” and the “Solubility in Ethyl acetate” value is reported as “∘”. In addition, in the data set “Solubility test” (setting [6]), the “Solubility in Ethyl lactate” value is recorded as “∘”, the “Solubility in Methyl acrylate” value is reported as “∘”, the “Solubility in Pentaerythritol triacrylate (M305)” value is recorded as “∘” and the “Solubility in Propylene glycol monoethyl ether acetate” value is reported as “∘”. The “Solubility in Tetrahydrofuran” value in “Solubility test” (setting [6]) was “∘”. In addition, the “Compatibility with M305” value in data set [1] was “∘”. Besides, the “Reaction rate (decrement of double bond)” value in data set [1] (Exposure 50 mJ) was 17.3%. Besides, the “Reaction rate (decrement of double bond)” value in data set [1] (Exposure 100 mJ) is 23.6%. Besides, in data set [1] (Exposure 400 mJ), the “Reaction rate (decrement of double bond)” value is listed as 36.6%. Further, in data set [2] (M305 coating layer 4.2±0.05 μm, 2,000 mJ/cm^2, compared to Irg907), the “transmittance of cured layer” value is on record as “high in transmittance with respect to the light of 410 nm or less”. Besides, the “transmittance of cured layer” value in data set [2] (triethanolamine of the same number of mol added, M305 coating layer 4.2±0.05 μm) was “almost same in transmittance as in the case of only the compound 1”. Further, the “5% heat decomposition temperature” value in data set [3] (nitrogen atmosphere) came to 224 °C. In data set [4], the “ultraviolet absorption bottom edge” value was “about 320 nm” and the “ultraviolet absorption maximum wavelength” value is listed as “about 240 nm”. The “Reaction rate (decrement of double bond)” value in data set [5] (Exposure 50 mJ) was determined as 0.3%. The “Reaction rate (decrement of double bond)” value in data set [5] (Exposure 100 mJ) is listed as 0.5%. The “Reaction rate (decrement of double bond)” value in data set [5] (Exposure 400 mJ) is on record as 1.1%. The “Compatibility with M305” value in data set [5] was “∘”.

Take `COCCN1C(=O)c2cccc3cccc(c23)C1=O` [compound 3, reference compound]: the “Solubility in Acetone” value in “Solubility test” (setting [6]) was “∘”. In addition, the “Solubility in Chloroform” value in the data set “Solubility test” (setting [6]) is “∘”. In addition, in “Solubility test” (setting [6]), the “Solubility in Dimethylformamide” value is “∘”. Also, the “Solubility in Tetrahydrofuran” value in the data set “Solubility test” (setting [6]) is recorded as “∘”. The solubility – broadly, how much of the substance goes into solution per volume – at 3 h is below 500 mM in the data set “Solubility test” (ethyl acetate, 0.5 mol/L at 20° C., ultrasonic wave 3 hours, read-out: Solubility in Ethyl acetate); below 500 mM in “Solubility test” (ethyl lactate, 0.5 mol/L at 20° C., ultrasonic wave 3 hours, read-out: Solubility in Ethyl lactate); below 500 mM in the data set “Solubility test” (methyl acrylate, 0.5 mol/L at 20° C., ultrasonic wave 3 hours, read-out: Solubility in Methyl acrylate); below 500 mM in the data set “Solubility test” (pentaerythritol triacrylate (M305), 0.5 mol/L at 20° C., ultrasonic wave 3 hours, read-out: Solubility in Pentaerythritol triacrylate (M305)); below 500 mM in the data set “Solubility test” (propylene glycol monoethyl ether acetate, 0.5 mol/L at 20° C., ultrasonic wave 3 hours, read-out: Solubility in Propylene glycol monoethyl ether acetate). Further, the “Compatibility with M305” value in data set [1] and in data set [5] was “∘” in each case. Moreover, the “Reaction rate (decrement of double bond)” value in data set [1] (Exposure 50 mJ) is 3.3%; in data set [1] (Exposure 100 mJ), 5.4%; in data set [1] (Exposure 400 mJ), 11.1%; in data set [5] (Exposure 50 mJ) it was 1.0%; in data set [5] (Exposure 100 mJ) it was 2.5%; in data set [5] (Exposure 400 mJ), 26.6%. For the same compound, the “5% heat decomposition temperature” value in data set [3] (nitrogen atmosphere) worked out at 229 °C.

For the compound `COCCn1c(=O)c2cc([N+](=O)[O-])ccc2c2ccc([N+](=O)[O-])cc2c1=O` [Compound 15], the “improvement of heat decomposition temperature in comparison with the compound 1” value in data set [3] is at least 50 °C. The “5% heat decomposition temperature” value in data set [3] (nitrogen atmosphere) came to 280 °C. Further, in data set [4], the “absorption at 365 nm (emitting wavelength of high pressure mercury lamp)” value is “has absorption at a wavelength of 365 nm”, the “ultraviolet absorption bottom edge” value is “about 320 nm” and the “ultraviolet absorption maximum wavelength” value is “about 240 nm”.

In the case of `CN(C)CCn1c(=O)c2ccccc2c2ccccc2c1=O` [Compound 13], the “Compatibility with M305” value in data set [1] and in data set [5] was “∘” throughout. The “Reaction rate (decrement of double bond)” value in data set [1] (Exposure 50 mJ) was determined as 11.0%; in data set [1] (Exposure 100 mJ), 15.2%; in data set [1] (Exposure 400 mJ), 24.8%; in data set [5] (Exposure 50 mJ), 0.2%; in data set [5] (Exposure 100 mJ) it was 0.8%; in data set [5] (Exposure 400 mJ), 4.2%. Moreover, the “heat resistance / 5% reduction in weight temperature, comparison in words” value in data set [3] (10° C./min, nitrogen atmosphere) is recorded as “slightly lower 5% reduction in weight temperature”. For the same compound, the “5% heat decomposition temperature” value in data set [3] (nitrogen atmosphere) was 177 °C.
